# Like-named read-outs stand apart in the source and are kept apart here.
# Legend:
# LdBDF5 = tested on: LdBDF5; design: method as in PMID 37906637; details: different affinities for first or second BD; cited from earlier work
# recombinant TcBD2 = recombinant TcBD2 (Trypanosoma cruzi, UniProt A0A2V2V5V1); experiment: Thermal shift / differential scanning fluorimetry (DSF); type: binding
# Protocol: Recombinant TcBD2 was buffered in 10 mM HEPES, pH 7.5, and 300 mM NaCl and assayed in a 96-well plate at a final concentration of 5 µM in a 25-µL volume. Compounds were added at a final concentration between 0.1 and 50 µM to calculate dissociation constants. SYPRO Orange was added as a fluorescence probe at a dilution of 1:10,000. Excitation and emission filters for the SYPRO Orange dye were set to 465 and 590 nm, respectively. The temperature was raised with a step of 2°C per minute from 25°C to 96°C, and fluorescence readings were taken at each interval in a real-time Bio-Rad Opus CFX. Data were analyzed as previously described ([22]).
# Fig 3 Kd calculation using DSF. Six concentrations of each compound (compounds named 1 to 7 indicated on top of each graph) were used (from 0.1 to 50 µM), and the melting temperatures of TcBD2 with each concentration of compound obtained were used to calculate the Kds. DMSO was used as a control sample. All thermal shift assays were performed at least in triplicate with reproducibility of parameters within ±10%. The change of melting temperature versus the log of the ligand concentration was plotted and fitted as described in the Materials and Methods section.
# [1] = tested on: T. cruzi Dm28c epimastigotes expressing beta-galactosidase; experiment: Beta-galactosidase expressing parasite assay (epimastigotes); type: cell-based; details: Trypanosoma cruzi, 72 h
# Protocol: T. cruzi Dm28c which expresses the Escherichia coli LacZ gene was used ([31][–][33]). Epimastigotes were incubated with the compounds (50, 25, 12.5, 6.25, and 3.125 µM). After 72 hours of treatment, the assays were developed by the addition of Chlorophenol red-β-D-galactopyranoside (100 µM final concentration) and Nonidet P-40 (0.1% final concentration). Plates were incubated for 2 to 4 hours at 37°C. Wells with β-galactosidase activity turned the media from yellow to red, and this was quantitated by absorbance at 595 nm using a Synergy HTX multi-detection microplate reader as reported previously ([31]). Normalized survival percentage was plotted against concentrations on Prism 9.0 GraphPad software. DMSO 50% was used as the 0% survival baseline. Each concentration was assayed in triplicates.
# Fig 4 Trypanocidal effect on epimastigotes expressing beta-galactosidase. Epimastigotes were incubated for 72 hours with each compound (named 1 to 6 and indicated on top of each graph) at five concentrations (3.12 to 50 µM). Beta-galactosidase activity was measured, and normalized survival was plotted vs. log concentration. For IC50 calculation of iBET151 and Benznidazole (BZN) (used as positive controls), six concentrations (from 1.56 to 100 µM) were plotted and the curves were fitted using GraphPad Prism 9.0 [non-linear regression: log(inhibitor) vs. response -- Variable slope (four parameters)]. […]
# TcBDF3 = tested on: TcBDF3; design: method as in PMID 27007774, PMID 35482332; details: cited from earlier work
# Dm28c epimastigotes = details: cited from earlier work
# TbBDF3 [2] = target: TbBDF3; design: method as in PMID 26646171, PMID 35642518; details: cited from earlier work
# TbBDF2 = target: TbBDF2; design: method as in PMID 26646171, PMID 35642518; details: cited from earlier work
# TcBDF2 = tested on: TcBDF2; design: method as in PMID 27007774, PMID 35482332; details: cited from earlier work
# [3] = tested on: asexual form of Plasmodium falciparum; design: method as in PMID 29631126; details: cited from earlier work
# LdBD5.1 = target: LdBD5.1; design: method as in PMID 37906637; details: cited from earlier work
# [4] = tested on: promastigotes from Leishmania mexicana; design: method as in PMID 37906637; details: cited from earlier work
# [5] = tested on: promastigotes from L. donovani; design: method as in PMID 37906637; details: cited from earlier work
# [6] = tested on: Toxoplasma tachyzoites infecting HFF cells; design: method as in PMID 32119930; details: cited from earlier work
# second BD of TbBDF5 = target: second BD of TbBDF5; design: method as in PMID 29025975; details: ITC; cited from earlier work
# first BD from TbBDF5 = tested on: first BD from TbBDF5; design: method as in PMID 29025975; details: cited from earlier work
# TbBDF3 [7] = tested on: TbBDF3; design: method as in PMID 29025975; details: cited from earlier work
# BD of TbBDF2 = target: BD of TbBDF2; design: method as in PMID 29025975; details: ITC; cited from earlier work
# procyclic T. brucei = tested on: procyclic T. brucei; design: method as in PMID 29025975; details: growth of procyclic T. brucei; cited from earlier work
# [8] = second round of experiments, six concentrations, read-out: IC50 (Figure S3, Kd calculation using DSF, second round of experiments)
# [9] = thermal shift, compounds 0.1 to 50 µM, 5 µM TcBD2, read-out: Kd ± SD
# [10] = read-out: IC50 against Dm28c epimastigotes
# Chain of recombinant TcBD2 (A0A2V2V5V1 entry or part of it): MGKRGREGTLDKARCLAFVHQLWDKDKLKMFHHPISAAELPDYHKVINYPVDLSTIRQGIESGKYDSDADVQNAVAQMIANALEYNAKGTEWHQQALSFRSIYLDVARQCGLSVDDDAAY
compound,measurement,setting,value
CCn1cc(-c2cccc(C(F)(F)F)c2)c2sc(C(=N)NC3CCS(=O)(=O)CC3)cc2c1=O [I-BRD9],binding to LdBDF5,LdBDF5,binds
CCn1nnc2c(N3CC[C@H](N)C3)nc(C)nc21 [Compound 2],Kd,recombinant TcBD2; [8],1.55 µM
same,Kd,recombinant TcBD2; [9],1.33 ± 0.22 µM
COc1cc2c(cc1-c1c(C)noc1C)ncc1[nH]c(=O)n([C@H](C)c3ccccn3)c12 [iBET-151],IC50,[1],7.75 µM
same,binding to TcBDF3,TcBDF3,bind
same,IC50,Dm28c epimastigotes; [10],6.35 µM
same,Kd,TbBDF3 [2],175 µM
same,Kd,TbBDF2,225 µM
same,binding to TcBDF2,TcBDF2,bind
Cc1cc2c(NC(=O)CC(C)(C)CC(=O)O)cccc2nn1 [Compound 4],Kd,recombinant TcBD2; [8],1.92 µM
same,Kd,recombinant TcBD2; [9],1.58 ± 0.42 µM
Cc1cc2c(NS(=O)(=O)c3c(C)noc3C)cccc2nn1 [Compound 5],Kd,recombinant TcBD2; [8],3.36 µM
same,Kd,recombinant TcBD2; [9],3.52 ± 0.12 µM
"O=C(Cn1ccnc1[N+](=O)[O-])NCc1ccccc1 [BZN, Benznidazole]",IC50,[1],19.8 µM
Cc1cc2c(NC(=O)c3ccccc3C(=O)O)cccc2nn1 [Compound 6],Kd,recombinant TcBD2; [8],3.11 µM
same,Kd,recombinant TcBD2; [9],3.31 ± 0.26 µM
CC(=O)Nc1nc(C)c(S(=O)(=O)Nc2cccc3nnc(C)cc23)s1 [Compound 7],Kd,recombinant TcBD2; [8],3.15 µM
same,Kd,recombinant TcBD2; [9],2.81 ± 0.31 µM
CCn1nnc2c(N3CC[C@@H](N)C3)nc(C)nc21 [Compound 1],Kd,recombinant TcBD2; [8],1.89 µM
same,Kd,recombinant TcBD2; [9],1.91 ± 0.31 µM
COc1ccc(CCc2nc3cc(-c4c(C)noc4C)ccc3n2C[C@H](C)N2CCOCC2)cc1Cl [SGC-CBP30],selectivity index,[3]; calculated using a human HEK 293 cell line,around 7
same,IC50,[3]; in vitro,3.2 µM
same,Kd,LdBD5.1,0.281 µM
same,IC50,[4],7.16 µM
same,IC50,[5],6.16 µM
same,binding to LdBDF5,LdBDF5,binds
Cc1cc(C(=O)NC2CCc3nccn3C2)c2c(C)noc2n1 (stereo not shown) [Compound 3],Kd,recombinant TcBD2; [8],2.14 µM
same,Kd,recombinant TcBD2; [9],2.41 ± 0.32 µM
Cc1sc2c(c1C)C(c1ccc(Cl)cc1)=N[C@@H](CC(=O)OC(C)(C)C)c1nnc(C)n1-2 [JQ1(+)],binding to TcBDF3,TcBDF3,binds
same,IC50,Dm28c epimastigotes; [10],7.14 µM
same,binding to TbBDF3,TbBDF3 [2],do not bind at all
same,binding to TbBDF2,TbBDF2,do not bind at all
same,binding to TcBDF2,TcBDF2,does not interact
Cc1nnc2c3ccccc3c(N[C@@H](C)[C@H](c3ccccc3)N(C)C)nn12 [L-Moses],IC50,[6],~0.6 µM
"CCOC(=O)Nc1cc(-c2ccc(C)c(NS(C)(=O)=O)c2)nn2c(C)nnc12 [BSP, Bromosporine]",binding to TcBDF3,TcBDF3,bind
same,IC50,Dm28c epimastigotes; read-out: IC50 against parasites,> 50 µM
same,binding to LdBDF5,LdBDF5,binds
same,binding to TcBDF2,TcBDF2,bind
CCCOc1ccn2c(C(C)=O)cc(-c3ccccc3S(C)(=O)=O)c2c1 [GSK2801],Kd,second BD of TbBDF5,83 µM
same,binding to first BD from TbBDF5,first BD from TbBDF5,does not bind
same,binding to TbBDF3,TbBDF3 [7],does not bind
same,Kd,BD of TbBDF2,15 µM
same,IC50,procyclic T. brucei,1.37 µM

# Reference: article PMC11304739, “Identification of novel bromodomain inhibitors of Trypanosoma cruzi bromodomain factor 2 (TcBDF2) using a fluorescence polarization-based high-throughput assay” (Antimicrobial Agents and Chemotherapy, 2024)
